This passage reports Inhibition results from ChEMBL document CHEMBL1144266, “Synthesis and biological evaluation of 3-benzyl-1-methyl- and 1-methyl-3-phenyl-isothioureas as potential inhibitors of iNOS” (2005).

Common to all, as to format: functional, Mus musculus
The subject of assay [1] is J774.A1. Kind of assay: Percent inhibition of nitrite release in lipopolysaccharide (LPS) treated J774.A1 macrophage cell lines at concentration of 1E-3 M.
Assay [2] concerns J774.A1. The assay can be described thus: Percent inhibition of nitrite release in lipopolysaccharide (LPS) treated J774.A1 macrophage cell lines at concentration of 1E-5M.
Assay [3] concerns J774.A1. The assay can be described thus: Percent inhibition of nitrite release in lipopolysaccharide (LPS) treated J774.A1 macrophage cell lines at concentration of 1E-6M.
The test system of assay [4] is J774.A1. Kind of assay: Percent inhibition of nitrite release in lipopolysaccharide (LPS) treated J774.A1 macrophage cell lines at concentration of 1E-7M.
In assay [5] the test system is J774.A1. Kind of assay: Percent inhibition of nitrite release in lipopolysaccharide (LPS) treated J774.A1 macrophage cell lines at concentration of 1E-8M.

For orientation: Inhibition means the relative decrease from the control value, in per cent. Turning to `CN/C(=N\c1ccc(C)cc1)SC`, the results for the Inhibition in the assay on J774.A1 [1], with J774.A1 [2] and in the assay with J774.A1 [3] were 67.8%, 18.1% and 4.67%, respectively.
The corresponding values for `CCCS/C(=N\C)Nc1cccc(Cl)c1` are 58.45%, 9.34% and 5.01%.
On to `CCS/C(=N\C)Nc1ccc(C)cc1`, for which the Inhibition in the assay on J774.A1 [1] was 56.82%; in the assay with J774.A1 [2], 0%; with J774.A1 [3] it was 0%.
For the compound `C/N=C(/Nc1ccccc1F)SC(C)C`, the Inhibition with J774.A1 [1] is 67.71%; in the assay with J774.A1 [2], 9.91%; with J774.A1 [3], 2.76%.
The like results for `C/N=C(/Nc1cccc(C)c1)SC(C)C` were, in that order, 68.77%, 18.55% and 19.89%.
The corresponding values for `C/N=C(/Nc1ccc(C)cc1)SC(C)C` are 73.14%, 28.11% and 39.8%.
`CN/C(=N\c1ccccc1C)SC`: the Inhibition was found to be 75.1% in the assay on J774.A1 [1], 17.45% in the assay on J774.A1 [2] and 8.32% with J774.A1 [3].
The like results for `CN/C(=N\c1cccc(C)c1)SC` were, in that order, 75%, 15.34% and 7.03%.
The like results for `CN/C(=N\c1ccccc1F)SC` were, in that order, 52.45%, 6.01% and 1.56%.
Regarding `CCCS/C(=N\C)Nc1ccccc1F`, the Inhibition in the assay with J774.A1 [1] was 65.61%; with J774.A1 [2] it was 11.26%; in the assay on J774.A1 [3] it was 4.15%.
`CCCS/C(=N\C)NCc1ccccc1`: the Inhibition in the assay with J774.A1 [2] is reported as -39.58%; in the assay on J774.A1 [3], -33.71%; in the assay with J774.A1 [4] it was -31.36%; with J774.A1 [5], -7.96%.
Turning to `CCS/C(=N\C)Nc1ccccc1C`, the figures for the Inhibition in the assay with J774.A1 [1], with J774.A1 [2] and in the assay on J774.A1 [3] were 65.21%, 15.33% and 7.44%, respectively.
The like results for `CN/C(=N\c1cccc(F)c1)SC` were, in that order, 66.9%, 9.34% and 5.23%.
For `CCCS/C(=N\C)Nc1ccccc1`, the Inhibition in the assay with J774.A1 [1] is on record as 65.78%; in the assay on J774.A1 [2], 15.7%; in the assay with J774.A1 [3] it was 4.65%.
The like results for `C/N=C(/Nc1ccc(Cl)cc1)SC(C)C` were, in that order, 48.09%, 7.09% and 8.21%.
The corresponding values for `CN/C(=N\c1cccc(Cl)c1)SC` are 45.38%, 12.33% and 4.06%.
The corresponding values for `CN/C(=N\c1ccccc1)SC` are 65%, 8.65% and 5.1%.
Turning to `CCS/C(=N\C)Nc1ccccc1`, the Inhibition with J774.A1 [1] is 76.76%; in the assay on J774.A1 [2] it was 2.67%; in the assay on J774.A1 [3], 1.67%.
The like results for `CCCS/C(=N\C)Nc1ccc(C)cc1` were, in that order, 83.42%, 2.08% and 1.54%.
The corresponding values for `C/N=C(/Nc1cccc(F)c1)SC(C)C` are 66.98%, 10.04% and 4.23%.
As for `C/N=C(/Nc1cccc(Cl)c1)SC(C)C`, the Inhibition with J774.A1 [1] is listed as 46.9%; in the assay on J774.A1 [2], 8%; in the assay on J774.A1 [3], 7.09%.
The like results for `CCCS/C(=N\C)Nc1ccccc1C` were, in that order, 81.01%, 11.45% and 8.12%.
With `CN/C(=N\c1ccccc1Cl)SC`, the results for the Inhibition in the assay on J774.A1 [1], in the assay on J774.A1 [2] and with J774.A1 [3] were 21.32%, 4.67% and 2.9%, respectively.
As to `CCS/C(=N\C)NCc1ccccc1`, the Inhibition in the assay on J774.A1 [2] is given as -26.84%; in the assay on J774.A1 [3], -23.65%; in the assay with J774.A1 [4], -2.41%; in the assay on J774.A1 [5], -7.28%.
For `CCS/C(=N\C)Nc1cccc(Cl)c1`, the figures for the Inhibition with J774.A1 [1], with J774.A1 [2] and in the assay with J774.A1 [3] were 41.56%, 11.56% and 3.44%, respectively.
The corresponding values for `C/N=C(/Nc1ccccc1)SC(C)C` are 81.5%, 19.75% and 13.21%.
The like results for `C/N=C(/Nc1ccccc1C)SC(C)C` were, in that order, 85.21%, 18.78% and 13.56%.
`CCS/C(=N\C)Nc1cccc(C)c1`: the Inhibition in the assay with J774.A1 [1] worked out at 81.03%; with J774.A1 [2], 14.02%; in the assay with J774.A1 [3], 6.79%.
Take `CN/C(=N/Cc1ccccc1)SC`: the Inhibition in the assay on J774.A1 [2] is -54.53%; with J774.A1 [3] it was -9.54%; in the assay with J774.A1 [4] it was -5.96%; in the assay on J774.A1 [5] it was -2.65%.
For `COC(=O)[C@@H](N)CCCNC(=N)N[N+](=O)[O-]` [L-NAME], the Inhibition with J774.A1 [1] came out at 69.49%; in the assay with J774.A1 [2] it was 20.37%; in the assay with J774.A1 [3] it was 12.8%.
The corresponding values for `CCCS/C(=N\C)Nc1cccc(C)c1` are 78.34%, 12.09% and 8.31%.
In the case of `CCCS/C(=N\C)Nc1cccc(F)c1`, the Inhibition in the assay with J774.A1 [1] was determined as 53.91%; in the assay with J774.A1 [2], 11.11%; in the assay on J774.A1 [3], 7%.
The corresponding values for `CN/C(=N\c1ccc(Cl)cc1)SC` are 69.05%, 7.55% and 2.9%.
The corresponding values for `C/N=C(/Nc1ccc(F)cc1)SC(C)C` are 61.45%, 9.03% and 4.76%.
The corresponding values for `CCS/C(=N\C)Nc1cccc(F)c1` are 59.45%, 10.21% and 6.23%.
Take `CCS/C(=N\C)Nc1ccccc1Cl`: the Inhibition is 19.55% in the assay on J774.A1 [1], 10.21% in the assay with J774.A1 [2] and 2.9% in the assay on J774.A1 [3].
For the compound `CCCS/C(=N\C)Nc1ccc(F)cc1`, the Inhibition in the assay with J774.A1 [1] is 53.45%; in the assay on J774.A1 [2] it was 10.67%; in the assay with J774.A1 [3] it was 4%.
The corresponding values for `CCS/C(=N\C)Nc1ccccc1F` are 40.01%, 9.76% and 3.02%.
Consider `CCCS/C(=N\C)Nc1ccc(Cl)cc1`, for which the results for the Inhibition in the assay with J774.A1 [1], with J774.A1 [2] and in the assay with J774.A1 [3] were 50.04%, 5.08% and 1.1%, respectively.
The corresponding values for `CCCS/C(=N\C)Nc1ccccc1Cl` are 11.45%, 9.55% and 1.1%.
The like results for `CCS/C(=N\C)Nc1ccc(Cl)cc1` were, in that order, 54.05%, 10.45% and 0.5%.
With `CCS/C(=N\C)Nc1ccc(F)cc1`, the Inhibition in the assay on J774.A1 [1] is recorded as 60.56%; in the assay with J774.A1 [2], 9.45%; in the assay on J774.A1 [3], 5.98%.
Regarding `C/N=C(/Nc1ccccc1Cl)SC(C)C`, the values for the Inhibition in the assay on J774.A1 [1], in the assay with J774.A1 [2] and in the assay on J774.A1 [3] were 16.21%, 8.69% and 3.21%, respectively.
